# Laboratory results from US20090047243A1, “COMBINATIONS FOR THE TREATMENT OF B-CELL PROLIFERATIVE DISORDERS” (priority 2007, published 2009).
# Columns and labels:
# [1] = tested on: H929 multiple myeloma cell line; assay: Anti-proliferation assay (ATPLite, 72 h); format: cell-based, human; set-up: key: S = lnfX·lnfY·ΣIdata(Idata−ILoewe), volume over Loewe additivity
# How it was run: (§1)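 Cells treated 72 h with compounds in 2- or 3-fold serial dilutions (12 concentrations for single agents; 6×6 matrix for combinations); INA-6 medium supplemented with 10 ng/ml IL-6. Viability by ATPLite luminescence; % inhibition vs untreated wells, curves fitted, combinations assessed by Loewe additivity and Synergy Score.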
# [2] = tested on: RPMI-8226 multiple myeloma cell line; assay: Anti-proliferation assay (ATPLite, 72 h); format: cell-based, human; set-up: key: S = lnfX·lnfY·ΣIdata(Idata−ILoewe), volume over Loewe additivity
# How it was run: as §1
# [3] = tested on: human multiple myeloma cells (MM.1S); assay: Anti-proliferation assay (ATPLite, 72 h); format: cell-based; set-up: key to synergy score / synergy (score), PDEi × HE-NECA: S = lnfX·lnfY·ΣIdata(Idata−ILoewe), volume over Loewe additivity
# How it was run: as §1
# [4] = tested on: RPMI-8226, H929, MM.1S and MM.1R MM cell lines; assay: Anti-proliferation assay, statements across MM cell lines; format: cell-based, human; details: crossed with adenosine receptor agonists
# Protocol: The MM.1S, MM.1R, H929, MOLP-8, EJM, INA-6, ANBL6, KSM-12-PE, OPM2, and RPMI-8226 multiple myeloma cell lines, as well as the Burkitt's lymphoma cell line GA-10 and the non-Hodgkin's lymphoma cell lines Farage, SU-DHL6, and Karpas 422 were cultured at 37° C. and 5% CO2 in RPMI-1640 media supplemented with 10% FBS. ANBL6 and INA-6 culture media was also supplemented with 10 ng/ml IL-6. The OCI-ly10 cell line was cultured using RPMI-1640 media supplemented with 20% human serum. MM.1S, MM.1R, OCI-ly10, Karpas 422, and SU-DHL6 cells were provided by the Dana Farber Cancer Institute. H929, RPMI-8226, GA-10, and Farage cells were from ATCC (Cat #'s CCL-155, CRL-9068, CRL-2392 and CRL-2630 respectively). MOLP-8, EJM, KSM-12-PE, and OPM2 were from DSMZ. The ANBL6 and INA-6 cell lines were provided by the M. D. Anderson Cancer Research Center.
# Compounds were prepared in DMSO at 1000× the highest desired concentration. Master plates were generated consisting of serially diluted compounds in 2- or 3-fold dilutions in 384-well format. For single agent dose response curves, the master plates consisted of 9 individual compounds at 12 concentrations in 2- or 3-fold dilutions. For combination matrices, master plates consisted of individual compounds at 6 or 9 concentrations at 2- or 3-fold dilutions.
# Cells were added to 384-well plates 24 hours prior to compound addition such that each well contained 2000 cells in 35 μL of media. Master plates were diluted 100× (1 μL into 100 μL) into 384-well dilution plates containing only cell culture media. 4.5 μL from each dilution plate was added to each assay plate for a final dilution of 1000×. To obtain combination data, two master plates were diluted into the assay plates. Following compound addition, assay plates were kept at 37° C. and 5% CO2 for 72 hours. Thirty microliters of ATPLite (Perkin Elmer) at room temperature was then added to each well. Final amount of ATP was quantified within 30 minutes using ATPLite luminescent read-out on an Envision 2103 Multilabel Reader (Perkin Elmer). Measurements were taken at the top of the well using a luminescence aperture and a read time of 0.1 seconds per well.
# The Loewe additivity model was used to quantify combination effects. Combinations were ranked initially by Additivity Excess Volume, which is defined as ADD Volume=ΣCX, CY (Idata−ILoewe). where ILoewe(CX, CY) is the inhibition that satisfies (CX/ECX)+(CY/ECY)=1, and ECX,Y are the effective concentrations at ILoewe for the single agent curves. A “Synergy Score” was also used, where the Synergy Score S=log fX log fY ΣIdata(Idata−ILoewe), summed over all non-single-agent concentration pairs, and where log fX,Y is the natural logarithm of the dilution factors used for each single agent. This effectively calculates a volume between the measured and Loewe additive response surfaces, weighted towards high inhibition and corrected for varying dilution factors. An uncertainty σS was calculated for each synergy score, based on the measured errors for the Idata values and standard error propagation.
smiles,measurement,setting,value
"COc1cc(-c2ccc(=O)[nH]n2)ccc1OC(F)F [Zardaverine, 6-(4-(difluoromethoxy)-3-methoxyphenyl)-3(2H)-Pyridazinone]","synergy (score), PDEi × HE-NECA","[1]; 6×6 cross of PDE inhibitor or PDE inhibitor mixture with HE-NECA, H929",3.39
same,synergy score,"[1]; PDE inhibitor crossed with (S) ENBA, H929",4.02
same,synergy score,"[1]; PDE inhibitor crossed with Chloro-IB-MECA, H929",2.97
same,synergy score,"[1]; PDE inhibitor crossed with HE-NECA, H929",3.39
same,synergy score,"[1]; in combination with adenosine receptor agonist CGS-21680, H929",3.75
same,synergy score,"[1]; in combination with adenosine receptor agonist HE-NECA, H929",3.39
same,synergy score,"[1]; in combination with adenosine receptor agonist regadenoson, H929",1.02
same,synergy score,"[2]; in combination with adenosine receptor agonist CGS-21680, RPMI 8226",0.13
same,synergy score,"[2]; in combination with adenosine receptor agonist HE-NECA, RPMI-8226",0.43
same,synergy score,"[2]; in combination with adenosine receptor agonist regadenoson, RPMI 8226",0.52
same,"synergy (score), PDEi × HE-NECA","[3]; 6×6 cross of PDE inhibitor or PDE inhibitor mixture with HE-NECA, MM.1S",4.39
same,inhibition at 1.89 µM,"[3]; Homo sapiens, MM1.S, Zardaverine 1.89 μM, Cl-IB-MECA conc. (μM), read-out: Percent inhibition of ATP in MM.1S cells",0.11%
same,inhibition at 3.79 µM,"[3]; Homo sapiens, MM1.S, Zardaverine 3.79 μM, Cl-IB-MECA conc. (μM), read-out: Percent inhibition of ATP in MM.1S cells",-1.8%
same,inhibition at 7.58 µM,"[3]; Homo sapiens, MM1.S, Zardaverine 7.58 μM, Cl-IB-MECA conc. (μM), read-out: Percent inhibition of ATP in MM.1S cells",13%
same,inhibition at 15.2 µM,"[3]; Homo sapiens, MM1.S, Zardaverine 15.2 μM, Cl-IB-MECA conc. (μM), read-out: Percent inhibition of ATP in MM.1S cells",5.1%
same,inhibition at 30.3 µM,"[3]; Homo sapiens, MM1.S, Zardaverine 30.3 μM, Cl-IB-MECA conc. (μM), read-out: Percent inhibition of ATP in MM.1S cells",14%
same,synergy score,"[3]; PDE inhibitor crossed with (S) ENBA, MM.1S",2.59
same,synergy score,"[3]; PDE inhibitor crossed with Chloro-IB-MECA, MM.1S",3.71
same,synergy score,"[3]; PDE inhibitor crossed with HE-NECA, MM.1S",4.39
same,synergy score,"[3]; in combination with adenosine receptor agonist CGS-21680, MM.1S",3.64
same,synergy score,"[3]; in combination with adenosine receptor agonist HE-NECA, MM.1S",4.39
same,synergy score,"[3]; in combination with adenosine receptor agonist regadenoson, MM.1S",1.45
same,rank of synergy scores among PDE inhibitors,[4],highest synergy scores
